Measured values published in PubChem BioAssay AID248 (DTP/NCI, 2004).
Several values for one entry are separate records, joined by “and”; a condition that tells them apart may be missing. Identical values can stand only once. Toxic doses and inconclusive results are not listed.

System: L1210 leukemia ip in BDF1 mice, survival T/C
Assay: NCI In Vivo Anticancer Drug Screen. Data for tumor model L1210 Leukemia (intraperitoneal) in B6D2F1 (BDF1) mice
Settings: endpoint: mean survival time, higher = longer survival
Method in brief: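 Each compound was tested against a transplantable tumor grown in mice. The endpoint was survival, with treated animals benchmarked against vehicle controls as a simple ratio.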

[1] = dose: 100.0 mg/kg/injection, schedule: Q04DX003 (ip), vehicle: Klucel (hydroxypropylcellulose) (HPC)
[2] = dose: 200.0 mg/kg/injection, schedule: Q04DX003 (ip), vehicle: Klucel (hydroxypropylcellulose) (HPC)
[3] = dose: 400.0 mg/kg/injection, schedule: Q04DX003 (ip), vehicle: Klucel (hydroxypropylcellulose) (HPC)

CC1(C)N=C(N)N=C(N)N1c1cccc(Br)c1
T/C (dose: 2.5 mg/kg/injection, schedule: Q01DX Z (ip), vehicle: saline): 121 % of control
T/C (dose: 11.0 mg/kg/injection, schedule: Q01DX Z (ip), vehicle: carboxymethylcellulose (CMC)): 117 % of control
T/C (dose: 16.0 mg/kg/injection, schedule: Q01DX Z (ip), vehicle: saline): 162 % of control
T/C (dose: 25.0 mg/kg/injection, schedule: Q01DX Z (ip), vehicle: saline): 168 % of control
T/C (dose: 37.0 mg/kg/injection, schedule: Q01DX Z (ip), vehicle: carboxymethylcellulose (CMC)): 105 % of control
T/C (dose: 50.0 mg/kg/injection, schedule: Q01DX Z (ip), vehicle: methylcellulose (MC)): 97 % of control
T/C (dose: 60.0 mg/kg/injection, schedule: Q01DX Z (ip), vehicle: carboxymethylcellulose (CMC)): 107 % of control
T/C (dose: 75.0 mg/kg/injection, schedule: Q01DX001 (ip), vehicle: other): 103 % of control
T/C (dose: 90.0 mg/kg/injection, schedule: Q01DX Z (ip), vehicle: carboxymethylcellulose (CMC)): 90 % of control
T/C (dose: 150.0 mg/kg/injection, schedule: Q01DX001 (ip), vehicle: other): 108 % of control

COc1ccc(C)cc1NC(=O)Nc1cccc(C(F)(F)F)c1
T/C (dose: 100.0 mg/kg/injection, schedule: Q01DX009 (ip), vehicle: Klucel (hydroxypropylcellulose) (HPC)): 92 % of control
T/C (dose: 200.0 mg/kg/injection, schedule: Q01DX009 (ip), vehicle: Klucel (hydroxypropylcellulose) (HPC)): 86 % of control
T/C (dose: 400.0 mg/kg/injection, schedule: Q01DX009 (ip), vehicle: Klucel (hydroxypropylcellulose) (HPC)): 95 % of control

Oc1[nH]c(=S)sc1C1=c2ccccc2=NCC1
T/C (dose: 44.4 mg/kg/injection, schedule: Q01DX001 (ip), vehicle: carboxymethylcellulose (CMC)): 93 % of control and 94 % of control
T/C (dose: 66.7 mg/kg/injection, schedule: Q01DX001 (ip), vehicle: carboxymethylcellulose (CMC)): 96 % of control and 106 % of control
T/C (dose: 100.0 mg/kg/injection, schedule: Q01DX001 (ip), vehicle: carboxymethylcellulose (CMC)): 98 % of control and 107 % of control
T/C (dose: 150.0 mg/kg/injection, schedule: Q01DX001 (ip), vehicle: carboxymethylcellulose (CMC)): 98 % of control and 100 % of control

CC1([N+](=O)[O-])COP(=O)(N2CC2)OC1 (stereo not drawn)
T/C (dose: 62.5 mg/kg/injection, schedule: Q01DX Z (ip), vehicle: carboxymethylcellulose (CMC)): 87 % of control
T/C (dose: 125.0 mg/kg/injection, schedule: Q01DX Z (ip), vehicle: carboxymethylcellulose (CMC)): 90 % of control

O=C(C(=S)N1CCOCC1)c1ccccc1
T/C [1]: 101 % of control
T/C [2]: 104 % of control
T/C [3]: 101 % of control

COc1cc(CC2(C#N)c3ccccc3C=CN2C(=O)c2ccccc2)c(Oc2cc(CC3(C#N)c4ccccc4C=CN3C(=O)c3ccccc3)ccc2OC)cc1OC (stereo not drawn)
T/C [1]: 98 % of control
T/C [2]: 93 % of control
T/C [3]: 92 % of control

CCC(C)(C)c1ccc(OCCOS(=O)(=O)c2ccc(C)cc2)cc1
T/C (dose: 100.0 mg/kg/injection, schedule: Q01DX009 (ip), vehicle: saline sonified): 96 % of control
T/C (dose: 200.0 mg/kg/injection, schedule: Q01DX009 (ip), vehicle: saline sonified): 108 % of control
T/C (dose: 400.0 mg/kg/injection, schedule: Q01DX009 (ip), vehicle: saline sonified): 97 % of control

CCCCCCCCCCC1CCC2C(C1)CC1C3CCCCC3CC21 (stereo not drawn)
T/C (dose: 100.0 mg/kg/injection, schedule: Q01DX001 (ip), vehicle: saline): 97 % of control
T/C (dose: 200.0 mg/kg/injection, schedule: Q01DX001 (ip), vehicle: saline): 97 % of control
T/C (dose: 400.0 mg/kg/injection, schedule: Q01DX001 (ip), vehicle: saline): 96 % of control

CCC(O)C[As](=O)(O)c1ccccc1 (stereo not drawn)
T/C (dose: 1.56 mg/kg/injection, schedule: Q04DX003 (ip), vehicle: saline): 94 % of control
T/C (dose: 3.13 mg/kg/injection, schedule: Q04DX003 (ip), vehicle: saline): 105 % of control
T/C (dose: 6.25 mg/kg/injection, schedule: Q04DX003 (ip), vehicle: saline): 96 % of control

CCOC(=O)c1ccc(NCc2cnc(N)c(C#N)n2)cc1
T/C (dose: 100.0 mg/kg/injection, schedule: Q04DX003 (ip), vehicle: saline with Tween-80): 91 % of control
T/C (dose: 200.0 mg/kg/injection, schedule: Q04DX003 (ip), vehicle: saline with Tween-80): 95 % of control
T/C (dose: 400.0 mg/kg/injection, schedule: Q04DX003 (ip), vehicle: saline with Tween-80): 95 % of control

Cc1cccc2c1/C(=N\Nc1ccc([N+](=O)[O-])cc1[N+](=O)[O-])CC(C)(C)C2
T/C (dose: 100.0 mg/kg/injection, schedule: Q01DX009 (ip), vehicle: saline with Tween-80): 104 % of control
T/C (dose: 200.0 mg/kg/injection, schedule: Q01DX009 (ip), vehicle: saline with Tween-80): 100 % of control
T/C (dose: 400.0 mg/kg/injection, schedule: Q01DX009 (ip), vehicle: saline with Tween-80): 100 % of control

CCCCCCCCC(CCc1ccccc1)CCc1ccccc1
T/C (dose: 100.0 mg/kg/injection, schedule: Q01DX001 (ip), vehicle: saline with Tween-80): 93 % of control
T/C (dose: 200.0 mg/kg/injection, schedule: Q01DX001 (ip), vehicle: saline with Tween-80): 93 % of control
T/C (dose: 400.0 mg/kg/injection, schedule: Q01DX001 (ip), vehicle: saline with Tween-80): 96 % of control
